# Measurements taken from patent US20250204541A1, “GAS PHASE TREATMENT OF PRODUCE” (priority 2022, published 2025).
# Legend:
# Format in all cases: in vivo
# avocados = test: Durometer shore (ripening/firmness) of treated avocados; settings: for average increase of durometer shore over the uninfected and untreated avocados: Example 22
# Description: Example 9. The antifungal activity of a range of AITC and carvacrol vapor exposure times was tested against Cg in avocados. To measure the effect of the various treatments on ripening, durometer shore was taken after 7 days of incubation at ambient temperature and high humidity. All samples were wounded by removing the stem and infected by dispensing 1000 Cg spores suspended in 10 μL of water in the wound. The test groups consisted of avocados that were: infected and left untreated on the benchtop; infected and left untreated under a fume hood; exposed to the vapor of 3 mL of AITC in a Petri dish for 24 hours, 48 hours, and 72 hours; and exposed to the vapor of 3 mL of carvacrol in a Petri dish for 72 hours. FIG. 11 quantifies the infection results. […] All exposure times to AITC vapor reduced the incidence of Cg mold compared to the untreated samples. A 24 hour AITC exposure reduced the incidence of Cg mold by 90%. A 48 hour AITC exposure reduced the incidence of Cg mold by 97%. A 72 hour AITC exposure reduced the incidence of Cg mold by 83%.
# Example 10. The antifungal activity of a range of AITC vapor exposure times were tested against Cg in avocados. To measure the effect of the various treatments on ripening, durometer shore was taken after 6 days of incubation at ambient temperature and high humidity. All samples were wounded by removing the stem and infected by dispensing 1000 Cg spores suspended in 10 μL of water in each wound. The test groups consisted of avocados that were: infected and left untreated on the benchtop; infected and left untreated in a fume hood; exposed to the vapor of 3 mL of AITC in a Petri dish for 24 hours, 48 hours, and 72 hours. FIG. 13 quantifies the infection results. […] All exposure times to AITC vapor reduced the incidence of Cg mold compared to the untreated samples.
# Example 21. The antifungal activity of avocados exposed to AITC vapor and prochloraz was tested against Cg in avocados. To measure the effect of the various treatments on ripening, durometer shore was taken after 5 days of incubation at ambient temperature (about 20° C. to about 25° C.) and high humidity (about 88% relative humidity to about 93% relative humidity). All samples were wounded by removing the stem and infected by dispensing 1000 Cg spores suspended in 10 μL of water in the wound. Exposure to vapor was done by placing the avocados in an airtight container, dispensing AITC onto Whatman filter paper discs, suspending the discs in front of a battery-powered fan, closing the container and incubating the avocados for 30 minutes. After vapor exposure, the avocados were left at ambient temperature, high humidity, and assessed for Cg mold on day 5. Treatment groups consisted of avocados that were: exposed for 30 minutes to the vapor of 125 μL of AITC disposed on a filter paper disc; dipped in a solution of 0.1 g/L of prochloraz and placed to dry on a rack in front of a fan for 30 min; infected and left untreated; and uninfected and untreated. […] To prepare the 0.1 g/L of prochloraz, 10 mg of prochloraz was mixed with 10 mL of ethanol and 90 mL of water. […] A 24 hour AITC exposure reduced the incidence of Cg mold by 90%. […] The mean shore value for the untreated avocados was 28.8 (standard deviation (SD)=10.8). The mean shore value for the infected avocados was 47.3 (SD=11.8). The mean shore value of the positive control, prochloraz treated avocados was 44.3 (SD=14.7). The mean shore value of the AITC treated avocados was 61.1 (SD=10.5).
# Durometer Shore Measurement: A Fruit Hardness Tester—HPE III Fff w/Sphere Ø 5.0 mm Test Anvil is used for the measurements. The Operating Procedure is as follows: • 1) At room temperature and 1 atm pressure, switch on the measuring device and press the hull or sleeve against the specimen so that the contact surface of the pressure plate rests on the fruit. […]
# mold = test: Mold growth on produce exposed to AITC in an airtight bin (general description); settings: for effect on mold growth on the produce: AITC concentration of 1000 ppm, airtight bin
# Description: The plurality of produce items is contacted with the antimicrobial agent for a length of time in a range of 1 minute to 100 hours (e.g., 10 minutes to 1 hour). The length of time is dependent on a variety of factors, such as type of produce, target pathogen, and the degree to which the enclosure is sealed. Examples include exposure times between 15 minutes and 96 hours for allyl isothiocyanate (AITC) in an airtight bin. […] Lower antimicrobial agent concentrations with longer exposure times or higher antimicrobial concentrations with shorter exposure times can also be used. For example, the plurality of produce items is contacted with the antimicrobial agent for a length of time in a range of 15 minute to 72 hours.
# A concentration of the antimicrobial agent in the headspace of the enclosure is typically in a range of about 20 parts per million by volume (ppmv) to about 5000 ppmv (e.g., about 550 ppmv to about 4800 ppmv, or about 25 ppmv to about 1250 ppmv). Depending on type of produce and exposure time in the enclosure, antimicrobial agent concentrations greater than about 2200 ppmv can sometimes damage the produce. […] In some embodiments, the antimicrobial agent is provided in a concentration to the enclosure in a headspace at least about 1200 ppmv, at least about 1250 ppmv, or about 1250 ppmv to about 5000 ppmv, or about 1250 ppmv to about 4900 ppmv.
# [1] = tested on: Colletotrichum gloeosporioides (Cg); test: Antifungal activity of vapor against Colletotrichum gloeosporioides in avocados; settings: Example 22, 30 minutes vapor of 62.5-500 μL on filter paper disc, assessed on day 5
smiles,measurement,setting,value
"C=CCN=C=S [AITC, allyl isothiocyanate]",average increase of durometer shore over the untreated avocados,"avocados; Example 9, Cg-infected avocados, all AITC treatments (3 mL, 24, 48, 72 hours), after 7 days, P value<0.0001",20.3 shore
same,average increase of durometer shore over the infected avocados,"avocados; Example 10, Cg-infected avocados, all AITC treatments (3 mL, 24, 48, 72 hours), after 6 days, P value<0.005",15.4 shore
same,higher durometer shore than the untreated avocados,"avocados; Example 21, Cg-infected avocados, 125 μL, 30 minutes, after 5 days",more than 30 shore
same,mean shore value,"avocados; Example 21, Cg-infected avocados, after 5 days, AITC 125 μL vapor 30 minutes, prochloraz 0.1 g/L dip",61.1 (SD=10.5) shore
same,average increase of durometer shore over the uninfected and untreated avocados,"avocados; Cg-infected avocados, 250 μL, 30 minutes, after 5 days, P value=0.0016",about 10 shore
same,average increase of durometer shore over the uninfected and untreated avocados,"avocados; Cg-infected avocados, 500 μL, 30 minutes, after 5 days, P value<0.0001",about 28.5 shore
same,average increase of durometer shore over the untreated avocados,"avocados; Example 23, avocados, after 11 days, coating agent 40 g/L dip, AITC vapor of 500 μL, P value<0.0001",22.5 shore
same,effect on mold growth on the produce,mold; exposure time of 15 minutes,slowed mold growth on the produce
same,effect on mold growth on the produce,mold; exposure time of 30 min or longer,showed good efficacy
same,effect on mold growth,mold; AITC concentrations in a range of 550 ppmv to 4800 ppmv,some inhibitory effect on mold growth
same,effect on mold growth,mold; AITC concentrations over 1000 ppmv,tended to be completely inhibitory
same,incidence of Cg mold,[1],"reduced the incidence of Cg mold compared to the untreated samples, the samples treated with coating agent, and the prochloraz treated sample"
